Drawing on US11098055B2, “Ester ACC inhibitors and uses thereof” (Gilead Apollo, LLC, priority 2015, dated 2021), this text covers IC90, IC50 and MIC for four compounds.

Assay [1] relates to Fusarium moniliforme (Fm). Description: Growth inhibition assay of fungal pathogens. As to conditions: Fusarium verticillioides, 48 h, read-out: Concentration at 90% Inhibition Fm. Type of assay: cell-based. The protocol:
(§1) Compounds of the present invention were evaluated in a growth inhibition assay to determine the ability to control the growth of fungal pathogens, such as Botrtyis cinerea (Bc), Collectotrichum graminicola (Cg), Diplodia maydis (Dm), Fusarium moniliforme (Fm), Fusarium virguhforme (Fv), Phytophthora capsici (Pc), Rhizoctonia solani (Rs), and Septoria tritici (St). Compounds to be tested were dissolved in DMSO at 2.5 mg/ml to produce compound stock solutions (“stocks”). Stocks were diluted with DMSO by a five-fold dilution in a 96-well stock plate, and two sets of final concentrations of 50, 10, and 2 ppm or 2, 0.4, and 0.08 ppm were obtained in vitro. A set of positive controls was also prepared, with various concentrations of Soraphen (2, 0.4, and 0.08 ppm), Metalaxyl (1.1, 0.22, and 0.04 ppm), and Metconazole (2, 0.4, and 0.08 ppm or 0.2, 0.04, and 0.008 ppm) after the five-fold dilutions. Negative controls on each plate included 2% DMSO, water, and a blank (media+2% DMSO). Fungal spores were isolated from previously sub-cultured plates of Botrtyis cinerea (Bc), Collectotrichum graminicola (Cg), Diplodia maydis (Dm), Fusarium moniliforme (Fm), Fusarium virguliforme (Fv), Phytophthora capsici (Pc), and Septoria tritici (St). The isolated spores were diluted to individual concentrations with a 17% V8 liquid media. For Rhizoctonia solani (Rs) and Pythium irregulare, 1.5 mm mycelial plugs were used in place of spores and ¼ Potato Dextrose Broth (PDB) was used for dilution. The spore concentrations and plug sizes were based on growth curves generated at 48 hours for each pathogen. In a second 96-well plate, the spores or mycelial plugs, media, diluted compound solutions, and controls were combined. Once the compound was added, a true final concentration of compound in each well was measured by an OD600 reading, which adjusted for any compound precipitation that might have occurred in the well. Plate readings were repeated at both 24 and 48 hours. The blank negative control was used as a background subtraction. Additional visual ratings were performed at both 24 and 48 hours for checking on precipitation and confirming efficacy. Visual and OD600 ratings of the compounds at 48 hours were compared to the 2% DMSO negative control, and the percent of pathogen growth inhibition was determined based on those values.

Assay [2] deals with fACC2 (UniProt Q00955). Description: In vitro ACC2 inhibition assay (ADP-Glo), fungal ACC2. The assay is classed as biochemical. As to the method:
(§2) An exemplary procedure for the in vitro ACC inhibition assay, which can be used to determine the inhibitory action of compounds of the invention toward either human (hACC2) or fungal (fACC2) ACC2, follows. The ADP-Glo™ Kinase Assay kit from Promega was used. The ADP-Glo™ Kinase Assay is a luminescent ADP detection assay to measure enzymatic activity by quantifying the amount of ADP produced during an enzyme reaction. The assay is performed in two steps; first, after the enzyme reaction, an equal volume of ADP-Glo™ Reagent is added to terminate the reaction and deplete the remaining ATP. Second, the Kinase Detection Reagent is added to simultaneously convert ADP to ATP and allow the newly synthesized ATP to be measured using a luciferase/luciferin reaction. Luminescence can be correlated to ADP concentrations by using an ATP-to-ADP conversion curve. The detailed procedure is as follows. 50 μL of the compound being tested (600 μM in DMSO) was added to a 384-well dilution plate. The compound was diluted 1:3 in succession in DMSO for each row for 11 wells. 0.5 μL ACC2 working solution was added to 384-well white Optiplate assay plate. 0.5 μL diluted compound solution in each column from step 2 was added to assay plate, each row containing 2 replicates. For the last 2 rows, 0.5 μL negative control (DMSO) was added in one row and 0.5 μL positive control (compound I-97) in the other. The plates were incubated at room temperature for 15 minutes. 5 μL substrate working solution was added to each well to initiate reaction. Final ACC2 reaction concentrations consist of: 5 nM ACC2, 20 μM ATP, 20 μM acetyl-CoA, 12 mM NaHCO3, 0.01% Brij35, 2 mM DTT, 5% DMSO, test compound concentrations: 30 μM, 10 μM, 3.33 μM, 1.11 μM, 0.37 μM, 0.123 μM, 0.0411 μM, 0.0137 μM, 0.00457 μM, 0.00152 μM, and 0.00051 μM. Plates were incubated at room temperature for 60 minutes. 10 μL ADP glo reagent was added. Plates were incubated at room temperature for 40 minutes. 20 μL kinase detection reagent was added. Plates were incubated at room temperature for 40 minutes, and then read on a Perkin Elmer EnVision 2104 plate reader for luminescence as Relative Light Units (RLU).
(§3) Data for each concentration, as well as the positive and negative controls, were averaged, and the standard deviation calculated. Percent inhibition was calculated by the formula: 100×(average negative control−compound)/(average negative control−average positive control). The IC50 for each compound was calculated by fitting the data with a non-linear regression equation: Y=Bottom+(Top−Bottom)/(1+10^((Log IC50−X)*HillSlope)), where X is the log of compound concentration and Y is percent inhibition.
(ADP-Glo first removes unused ATP, then detects ADP through luciferase.)

Assay [3] has as its system C. albicans ATCC 90028. Description: Anti-Fungal (Candida) Activity Assay, broth microtiter MIC. Type of assay: cell-based. As to conditions: ATCC90028, 48 h, 3 replicates, MIC read at 48 h. As to the method:
(§4) Compounds of the present invention were evaluated in an Anti-Fungal Activity Assay. An exemplary procedure for the assay, which measures the susceptibility of various Candida species to anti-fungal compounds, follows. Compounds to be tested (including fluconazole and amphotericin B) were dissolved in DMSO to obtain a solution having a concentration of 1 mg/mL. These stock solutions were sterile filtered using a 0.22 um nylon syringe filter, then diluted in sterile water to achieve a final concentration of 128 μg/mL.
(§5) All species were grown from frozen stock by directly plating on to freshly prepared Sabouraud Dextrose agar (BD, Difco) and incubated overnight in ambient air at 35° C. for 24 h. A direct suspension was prepared in RPMI 1640+MOPS (Lonza, Biowhittaker) by taking individual colonies from the overnight cultures using sterile swabs soaked in sterile saline. The concentration of the suspension was determined using pre-determined standard curves. These suspensions were then diluted down to 5×10^3 CFU/mL to achieve a final concentration of 2.5×10^3 CFU/mL once added to the microtiter plate as per CLSI guidelines (M27-A3, Vol. 28 No. 14).
(§6) Broth microtiter MIC challenge plates were prepared following CLSI guidelines (M27-A3, Vol. 28 No. 14). The original CLSI guidelines focused on reading Candida MICs after 48 h of incubation. As reading after only 24 h offers a clear advantage of patient care, QC limits are being established for all drugs at 24 h. That being said there are no known interpretive breakpoints for amphotericin B at 24 h and the current fluconazole interpretive breakpoints are based on a 48 h reading. The MIC for the test compounds were recorded at 48 h. All MIC determinations were achieved by visually comparing the growth found in the antibiotic challenged wells to that of the growth control.

Assay [4] concerns C. parapsilosis ATCC 22019. The assay is described as above. The assay is classed as cell-based. The conditions noted are these: Lodderomyces parapsilosis, ATCC22019, 48 h, 3 replicates, MIC read at 48 h. The protocol: as §4, §5, §6
Assay [5] has as its target hACC2 (Homo sapiens, UniProt O00763). As to the kind of experiment: In vitro ACC2 inhibition assay (ADP-Glo), human ACC2. The assay is classed as biochemical. As to the method: as §2, §3
Assay [6] relates to C. krusei ATCC 6258. As to the kind of experiment: Anti-Fungal (Candida) Activity Assay, broth microtiter MIC. The assay is classed as cell-based, Candida krusei. The conditions noted are these: Pichia kudriavzevii, ATCC6258, 48 h, 3 replicates, MIC read at 48 h. As to the method:
as §4, §5, §6

Assay [7] relates to ACC2. As to conditions: enzyme isolated from rat, mouse, monkey and human; cited from earlier work.
For assay [8], the system named is ACC1. The conditions noted are these: enzyme isolated from rat, mouse, monkey and human; cited from earlier work.
For assay [9], the system named is Fusarium virguliforme (Fv). As to the kind of experiment: Growth inhibition assay of fungal pathogens. Type of assay: cell-based. The conditions noted are these: 48 h, Table 4b, read-out: Concentration at 90% Inhibition Fv. The protocol: as §1
Assay [10] deals with Septoria tritici (St). As to the kind of experiment: Growth inhibition assay of fungal pathogens. As to conditions: Zymoseptoria tritici, 48 h, Table 4b, read-out: Concentration at 90% Inhibition St. The assay is classed as cell-based. The protocol: as §1
The subject of assay [11] is Phytophthora capsici (Pc). As to the kind of experiment: Growth inhibition assay of fungal pathogens. Type of assay: cell-based. The conditions noted are these: 48 h, Table 4b, read-out: Concentration at 90% Inhibition Pc. The protocol:
as §1

In assay [12] the test system is Rhizoctonia solani (Rs). Description: Growth inhibition assay of fungal pathogens. As to conditions: 48 h, Table 4b, read-out: Concentration at 90% Inhibition Rs. Type of assay: cell-based. As to the method: as §1
In assay [13] the test system is Collectotrichum graminicola (Cg). Description: Growth inhibition assay of fungal pathogens. The assay is classed as cell-based. The conditions noted are these: 48 h, Table 4b, read-out: Concentration at 90% Inhibition Cg. As to the method: as §1
Assay [14] concerns Diplodia maydis (Dm). As to the kind of experiment: Growth inhibition assay of fungal pathogens. The assay is classed as cell-based. The conditions noted are these: Stenocarpella maydis, 48 h, Table 4b, read-out: Concentration at 90% Inhibition Dm. As to the method: as §1
The test system of assay [15] is Botrtyis cinerea (Bc). As to the kind of experiment: Growth inhibition assay of fungal pathogens. The assay is classed as cell-based. As to conditions: 48 h, Table 4b, read-out: Concentration at 90% Inhibition Bc. As to the method: as §1

In brackets after ≈: the same amount, converted by molar mass. Read-outs that look alike come from different tables or passages of the source.

Sequence of fACC2 (Q00955 whole entry): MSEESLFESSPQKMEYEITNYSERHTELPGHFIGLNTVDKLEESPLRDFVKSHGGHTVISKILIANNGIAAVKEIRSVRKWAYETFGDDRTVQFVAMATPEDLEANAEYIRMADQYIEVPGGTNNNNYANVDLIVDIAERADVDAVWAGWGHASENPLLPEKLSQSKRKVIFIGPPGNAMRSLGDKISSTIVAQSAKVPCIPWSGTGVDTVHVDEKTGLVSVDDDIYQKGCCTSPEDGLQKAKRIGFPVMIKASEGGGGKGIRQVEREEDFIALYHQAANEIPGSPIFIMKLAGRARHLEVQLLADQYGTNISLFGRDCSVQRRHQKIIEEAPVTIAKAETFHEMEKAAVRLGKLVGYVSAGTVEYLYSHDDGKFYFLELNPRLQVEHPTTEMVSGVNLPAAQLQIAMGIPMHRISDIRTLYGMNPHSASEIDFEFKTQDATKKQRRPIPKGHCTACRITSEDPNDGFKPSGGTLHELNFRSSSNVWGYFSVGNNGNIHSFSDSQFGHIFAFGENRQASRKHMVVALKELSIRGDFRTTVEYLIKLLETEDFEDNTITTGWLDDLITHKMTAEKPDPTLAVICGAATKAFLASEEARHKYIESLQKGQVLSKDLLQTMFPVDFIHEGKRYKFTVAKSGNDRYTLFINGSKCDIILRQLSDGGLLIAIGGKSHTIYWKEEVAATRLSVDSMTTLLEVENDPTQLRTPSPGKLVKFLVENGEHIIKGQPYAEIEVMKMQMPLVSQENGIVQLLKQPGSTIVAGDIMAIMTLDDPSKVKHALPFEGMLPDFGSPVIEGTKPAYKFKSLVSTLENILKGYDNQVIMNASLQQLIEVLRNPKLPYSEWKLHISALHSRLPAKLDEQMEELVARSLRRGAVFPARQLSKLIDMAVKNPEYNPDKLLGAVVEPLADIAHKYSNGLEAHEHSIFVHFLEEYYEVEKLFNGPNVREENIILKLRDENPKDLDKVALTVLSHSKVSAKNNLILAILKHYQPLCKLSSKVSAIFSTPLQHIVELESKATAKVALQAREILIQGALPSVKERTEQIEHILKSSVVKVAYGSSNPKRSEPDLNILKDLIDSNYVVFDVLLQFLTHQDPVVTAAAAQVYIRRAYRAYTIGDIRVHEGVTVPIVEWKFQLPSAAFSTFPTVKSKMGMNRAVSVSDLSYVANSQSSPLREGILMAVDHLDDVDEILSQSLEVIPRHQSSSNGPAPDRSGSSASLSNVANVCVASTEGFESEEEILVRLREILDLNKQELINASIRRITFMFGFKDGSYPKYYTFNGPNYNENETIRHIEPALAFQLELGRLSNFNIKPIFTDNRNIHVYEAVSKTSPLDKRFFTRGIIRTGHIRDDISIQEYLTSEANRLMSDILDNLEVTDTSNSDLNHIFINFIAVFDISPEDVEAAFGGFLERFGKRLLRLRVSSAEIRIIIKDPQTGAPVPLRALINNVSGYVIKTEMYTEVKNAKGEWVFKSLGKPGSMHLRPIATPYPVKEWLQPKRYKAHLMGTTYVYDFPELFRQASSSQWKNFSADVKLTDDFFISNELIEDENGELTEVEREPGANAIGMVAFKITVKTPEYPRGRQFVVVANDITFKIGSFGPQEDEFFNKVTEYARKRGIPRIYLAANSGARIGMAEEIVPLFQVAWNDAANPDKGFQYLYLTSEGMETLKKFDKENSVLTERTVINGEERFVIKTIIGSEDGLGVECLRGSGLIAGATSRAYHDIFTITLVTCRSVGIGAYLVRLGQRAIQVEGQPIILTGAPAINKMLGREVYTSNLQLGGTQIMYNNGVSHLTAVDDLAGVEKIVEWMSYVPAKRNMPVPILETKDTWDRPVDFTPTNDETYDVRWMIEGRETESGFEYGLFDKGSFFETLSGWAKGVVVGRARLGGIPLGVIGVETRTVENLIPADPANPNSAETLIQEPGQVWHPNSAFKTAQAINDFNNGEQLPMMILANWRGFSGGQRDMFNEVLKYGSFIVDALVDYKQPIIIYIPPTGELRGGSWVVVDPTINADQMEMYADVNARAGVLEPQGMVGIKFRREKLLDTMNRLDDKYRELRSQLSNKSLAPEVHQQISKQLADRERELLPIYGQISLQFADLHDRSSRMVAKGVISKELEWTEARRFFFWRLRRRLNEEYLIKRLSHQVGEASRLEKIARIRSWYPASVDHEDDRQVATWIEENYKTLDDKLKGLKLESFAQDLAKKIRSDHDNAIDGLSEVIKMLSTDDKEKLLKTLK
Sequence of hACC2 (O00763 whole entry): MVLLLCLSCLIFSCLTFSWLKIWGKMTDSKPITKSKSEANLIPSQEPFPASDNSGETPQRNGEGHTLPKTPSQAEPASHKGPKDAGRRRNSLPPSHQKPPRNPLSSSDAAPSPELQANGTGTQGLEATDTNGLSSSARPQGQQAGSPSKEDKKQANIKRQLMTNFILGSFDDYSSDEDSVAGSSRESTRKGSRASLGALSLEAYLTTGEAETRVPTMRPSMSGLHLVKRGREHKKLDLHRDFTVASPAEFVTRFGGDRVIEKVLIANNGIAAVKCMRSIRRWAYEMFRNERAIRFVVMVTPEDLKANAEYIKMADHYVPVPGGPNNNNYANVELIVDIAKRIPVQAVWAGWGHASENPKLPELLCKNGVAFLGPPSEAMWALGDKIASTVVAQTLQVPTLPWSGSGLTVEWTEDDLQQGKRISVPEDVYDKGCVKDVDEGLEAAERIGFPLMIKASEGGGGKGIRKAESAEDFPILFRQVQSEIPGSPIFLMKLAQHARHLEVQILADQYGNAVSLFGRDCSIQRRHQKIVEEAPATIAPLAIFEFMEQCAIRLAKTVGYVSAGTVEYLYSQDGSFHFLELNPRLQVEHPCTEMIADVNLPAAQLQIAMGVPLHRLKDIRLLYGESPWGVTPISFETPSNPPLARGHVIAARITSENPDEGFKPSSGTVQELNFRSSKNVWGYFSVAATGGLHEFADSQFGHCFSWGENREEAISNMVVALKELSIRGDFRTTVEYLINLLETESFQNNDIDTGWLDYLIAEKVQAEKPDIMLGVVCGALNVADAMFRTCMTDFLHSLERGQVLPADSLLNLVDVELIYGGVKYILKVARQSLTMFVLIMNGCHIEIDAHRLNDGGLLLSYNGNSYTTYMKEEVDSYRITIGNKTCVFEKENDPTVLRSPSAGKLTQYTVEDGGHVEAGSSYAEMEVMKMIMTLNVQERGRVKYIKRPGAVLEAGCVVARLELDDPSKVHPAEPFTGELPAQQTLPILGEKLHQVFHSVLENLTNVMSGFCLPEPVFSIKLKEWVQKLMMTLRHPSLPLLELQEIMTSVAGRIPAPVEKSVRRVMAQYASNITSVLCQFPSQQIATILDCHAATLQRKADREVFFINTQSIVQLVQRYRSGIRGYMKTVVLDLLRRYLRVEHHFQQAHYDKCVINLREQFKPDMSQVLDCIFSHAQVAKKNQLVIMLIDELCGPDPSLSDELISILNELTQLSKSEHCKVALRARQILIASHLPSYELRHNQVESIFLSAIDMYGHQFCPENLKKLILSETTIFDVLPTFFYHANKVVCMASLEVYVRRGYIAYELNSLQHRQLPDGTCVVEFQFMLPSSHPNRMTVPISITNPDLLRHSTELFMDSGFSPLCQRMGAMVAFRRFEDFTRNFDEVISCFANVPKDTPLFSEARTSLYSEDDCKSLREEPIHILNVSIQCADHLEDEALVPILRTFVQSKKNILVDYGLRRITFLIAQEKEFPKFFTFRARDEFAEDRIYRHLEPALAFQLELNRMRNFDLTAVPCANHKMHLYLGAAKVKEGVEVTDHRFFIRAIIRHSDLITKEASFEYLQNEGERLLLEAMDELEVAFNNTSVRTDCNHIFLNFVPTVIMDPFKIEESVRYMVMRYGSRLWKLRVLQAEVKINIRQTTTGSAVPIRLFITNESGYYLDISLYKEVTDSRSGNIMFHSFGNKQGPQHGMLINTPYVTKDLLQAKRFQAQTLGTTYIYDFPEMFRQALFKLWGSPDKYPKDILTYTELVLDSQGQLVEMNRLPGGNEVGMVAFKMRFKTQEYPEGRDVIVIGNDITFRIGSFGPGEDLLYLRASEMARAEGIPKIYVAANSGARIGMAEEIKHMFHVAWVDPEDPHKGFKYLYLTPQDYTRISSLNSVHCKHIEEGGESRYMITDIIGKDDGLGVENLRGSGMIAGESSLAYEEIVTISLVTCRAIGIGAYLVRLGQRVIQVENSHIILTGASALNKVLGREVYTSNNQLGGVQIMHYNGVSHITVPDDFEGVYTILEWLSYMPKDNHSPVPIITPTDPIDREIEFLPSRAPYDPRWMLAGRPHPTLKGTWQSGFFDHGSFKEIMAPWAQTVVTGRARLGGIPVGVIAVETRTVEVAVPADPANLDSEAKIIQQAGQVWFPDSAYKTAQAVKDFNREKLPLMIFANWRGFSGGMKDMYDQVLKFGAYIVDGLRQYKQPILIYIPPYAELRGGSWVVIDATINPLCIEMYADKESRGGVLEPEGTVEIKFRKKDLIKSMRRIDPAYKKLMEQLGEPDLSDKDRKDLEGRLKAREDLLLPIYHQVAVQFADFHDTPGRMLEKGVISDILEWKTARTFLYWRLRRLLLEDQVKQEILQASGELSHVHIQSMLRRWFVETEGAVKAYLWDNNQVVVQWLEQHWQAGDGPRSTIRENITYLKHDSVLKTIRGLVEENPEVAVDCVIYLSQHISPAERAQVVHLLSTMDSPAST

By IC50 is commonly meant the concentration at which inhibition is half-maximal. A word on the MIC: it is the least concentration at which growth counts as inhibited. For the compound `CCNC(=O)C(C)(C)n1c(=O)c2c(C)c(C(=O)OCC)sc2n(C[C@H](OC2CCOCC2)c2ccccc2OC)c1=O` [Compound I-1, ethyl (R)-3-(1-(ethylamino)-2-methyl-1-oxopropan-2-yl)-1-(2-(2-methoxyphenyl)-2-((tetrahydro-2H-pyran-4-yl)oxy)ethyl)-5-methyl-2,4-dioxo-1,2,3,4-tetrahydrothieno[2,3-d]pyrimidine-6-carboxylate], the IC90 in assay [1] (Table 4a) and in assay [1] (Table 4b) was not below 50 µg/mL each time. For the same compound, the IC50 in assay [2] (Table 2a) was 0.6 to 3 nM; in assay [2] (Table 2b (additional results)), 0.3 to 3 nM; in assay [5] (Table 2a) it was 3 to 10 nM; in assay [5] (Table 2b (additional results)) it was 3 to 10 nM. For the same compound, the minimum inhibitory concentration (MIC) is 0.25 to 1 µg/mL (≈ 0.415 to 1.66 µM) in assay [3] (Table 3a); 0.25 to 1 µg/mL (≈ 0.415 to 1.66 µM) in assay [3] (Table 3b (additional results)); 1.1 to 2 µg/mL (≈ 1.83 to 3.32 µM) in [4] (Table 3a); 2.1 to 4 µg/mL (≈ 3.49 to 6.65 µM) in assay [4] (Table 3b (additional results)); 0.25 to 1 µg/mL (≈ 0.415 to 1.66 µM) in [6] (Table 3a); 2.1 to 4 µg/mL (≈ 3.49 to 6.65 µM) in assay [6] (Table 3b (additional results)).

`CCOC(=O)c1sc2c(c1C)c(=O)n([C@H](C)C(=O)N(C)C(C)C)c(=O)n2C[C@H](OCCO)c1cc(F)ccc1OC` [Compound I-30, ethyl 1-((R)-2-(5-fluoro-2-methoxyphenyl)-2-(2-hydroxy-ethoxy)ethyl)-3-((R)-1-(isopropyl(methyl)amino)-1-oxopropan-2-yl)-5-methyl-2,4-dioxo-1,2,3,4-tetrahydrothieno[2,3-d]pyrimidine-6-carboxylate]: the IC50 in assay [2] (Table 2b (additional results)) lay in the range of 0.3 to 3 nM; in assay [5] (Table 2b (additional results)), 10 to 40 nM. The results for the MIC in assay [3] (Table 3b (additional results)), in assay [4] (Table 3b (additional results)) and in assay [6] (Table 3b (additional results)) were 1.1 to 2 µg/mL (≈ 1.85 to 3.37 µM), 0.25 to 1 µg/mL (≈ 0.421 to 1.68 µM) and 0.25 to 1 µg/mL (≈ 0.421 to 1.68 µM), respectively.

For the compound `O=C(c1c2ccccc2cc2ccccc12)N1CCC(N2CCC[C@@H](C(=O)N3CCOCC3)C2)CC1` [CP-640186], the 50% inhibitory concentration (IC50) in assay [7] and in assay [8] was approximately 60 nM each time.

As for `CCOC(=O)c1sc2c(c1C)c(=O)n(C(C)(C)C(=O)NC(C)C)c(=O)n2CCc1cc(F)ccc1OCCC#N` [Compound I-45, ethyl 1-(2-(2-cyanoethoxy)-5-fluorophenethyl)-3-(1-(isopropylamino)-2-methyl-1-oxopropan-2-yl)-5-methyl-2,4-dioxo-1,2,3,4-tetrahydro-thieno[2,3-d]pyrimidine-6-carboxylate], the IC90 in assay [9] is 2 µg/mL (≈ 3.49 µM); in [10], not below 50 µg/mL; in [11], not below 50 µg/mL; in [12], not below 50 µg/mL; in assay [13] it was not below 50 µg/mL; in assay [14], not below 50 µg/mL. The IC90 in [15] was determined as 10 µg/mL (≈ 17.5 µM); in assay [1] (Table 4b) it was 2 µg/mL (≈ 3.49 µM). For the same compound, the figures for the half-maximal inhibitory concentration (IC50) in [2] (Table 2b (additional results)) and in assay [5] (Table 2b (additional results)) were 3 to 10 nM and not below 40 nM, respectively.
